Results as given in patent publication US8455516B2, “HIV-1 fusion inhibitors and methods” (Touro University, priority 2010, dated 2013).
Where two headings read alike, the source gives them in different places.

Key:
HIV-1 IIIB = test: HIV-1 viral infectivity inhibition, IIIB; type: cell-based; conditions: Human immunodeficiency virus 1, IIIB
Experimental: (§1) The ability of the compounds to inhibit HIV-1 infectivity was assessed using standard assays as reported in the literature. See: 1) Desmezieres, E.; Gupta, N.; Vassell, R.; He, Y.; Peden, K.; Sirota, L.; Yang, Z.; Wingfield, P.; Weiss, C. D. J Virol 2005, 79, 4774, and 2) Lackman-Smith, C.; Osterling, C.; Luckenbaugh, K.; Mankowski, M.; Snyder, B.; Lewis, G.; Paull, J.; Profy, A.; Ptak, R. G.; Buckheit, R. W., Jr.; Watson, K. M.; Cummins, J. E.; Sanders-Beer, B. E. Antimicrob Agents Chemother 2008.

HIV-1 Ba-L = test: HIV-1 viral infectivity inhibition, Ba-L; type: cell-based; conditions: Human immunodeficiency virus 1, BAL
Experimental: as §1

[1] = system: Pseudovirus HIV-1 BAL (CCR5-tropic strain)
MAGI cells = conditions: human
in vitro = conditions: human
[2] = system: Pseudovirus HIV-1 BAL (CCR5-tropic strain); test: microbe, parasite or virus in culture; conditions: MAGI
[3] = cytotoxicity, luciferase expression-based test; conditions: human, TZM-bl cells
TZM-bl cells = test: cytotoxicity, luciferase expression-based test; conditions: toxicity to TZM-bl cells, 24 hour exposure
HIV-1 HXB2 = test: HIV-1 viral infectivity inhibition, HXB2; type: cell-based; conditions: Human immunodeficiency virus 1, HXB2
Experimental: as §1

[4] = target: T1, gp41 hydrophobic pocket (receptor Fe(env2.0)3) (Human immunodeficiency virus type 1 group M subtype B, UniProt P04578); test: competitive inhibition fluorescence binding assay for the gp41 hydrophobic pocket; parameters: species or system HIV-1; conditions: binding constant, hydrophobic pocket of gp41
T1 construct: utilizing a receptor Fe(env2.0)3 selective for the hydrophobic pocket
Experimental: Compounds were validated for binding activity with a biochemical assay, and for biological activity with a cell-cell fusion (CCF) assay.
Association between the C-peptide and receptor leads to fluorescence quenching, which is reversed in the presence of an inhibitor. […] The assay is quantitative and provides the binding constant (KI) of the inhibitor.
Toxicity of the compounds to TZM-bl cells was also tested to ensure that the luminescence decrease was not simply due to cell death (CC50, toxicity).

Question: For `O=C(O)c1cccc(Cc2ccc3cc[nH]c3c2)c1` [Compound I-1, 3-((1H-indol-6-yl)methyl)benzoic acid], which IC50 (HIV-1 IIIB) is on record?
Answer: 99.9 µM

Question: And the IC50 (HIV-1 Ba-L)?
Answer: 44.7 µM

Question: And the “TI (TC50/IC50)” value ([1]; 2% Serum)?
Answer: >6.45

Question: What about the “TI (TC50/IC50)” value ([1]; 5% Serum) of the same compound?
Answer: >2.87

Question: What about the “TI (TC50/IC50)” value ([1]; 10% Serum) of the same compound?
Answer: >2.24

Question: What about the CC50 (MAGI cells) of the same compound?
Answer: > 100 µM

Question: And the CC50 (in vitro)?
Answer: > 100 µM

Question: And the IC50 ([2]; 2% Serum)?
Answer: 15.5 µM

Question: And the IC90 ([2]; 2% Serum)?
Answer: 58 µM

Question: And the IC50 ([2]; 5% Serum)?
Answer: 34.8 µM

Question: And the IC90 ([2]; 5% Serum)?
Answer: 89.4 µM

Question: What about the IC50 ([2]; 10% Serum) of the same compound?
Answer: 44.7 µM

Question: And the IC90 ([2]; 10% Serum)?
Answer: > 100 µM

Question: And the CC50 at 24 h [3]?
Answer: > 500 µM

Question: With `COc1ccc(Cn2ccc3ccc(Cc4cccc(C(=O)O)c4)cc32)cc1` [Compound I-2, 3-((1-(4-methoxybenzyl)-1H-indol-6-yl)methyl)benzoic acid] as the compound, how does the CC50 (TZM-bl cells) read?
Answer: 100 µM

Question: For `O=C(O)C(=O)c1c[nH]c2cc(Cc3cccc(C(=O)O)c3)ccc12` [Compound I-3, 3-((3-(carboxycarbonyl)-1H-indol-6-yl)methyl)benzoic acid], which CC50 at 24 h [3] is on record?
Answer: > 100 µM

Question: With `O=C(O)c1cccc(Cc2ccc3ccn(Cc4cccc(C(=O)O)c4)c3c2)c1` [Compound I-4, 3-((1-(3-(carboxy)benzyl)-1H-indol-6-yl)methyl)benzoic acid] as the compound, how does the CC50 at 24 h [3] read?
Answer: > 200 µM

Question: With `O=C(O)c1cccc(Cc2ccc3ccn(Cn4ccc5ccc(Cc6cccc(C(=O)O)c6)cc54)c3c2)c1` [Compound I-5, 3,3′-(1,1′-methylenebis(1H-indole-6,1-diyl))bis(methylene)dibenzoic acid] as the compound, how does the IC50 (HIV-1 HXB2) read?
Answer: 17 µM

Question: What about the IC50 (HIV-1 IIIB) of the same compound?
Answer: ≥ 100 µM

Question: And the IC50 (HIV-1 Ba-L)?
Answer: 92.1 µM

Question: And the “TI (TC50/IC50)” value ([1]; 2% Serum)?
Answer: >6.85

Question: What about the “TI (TC50/IC50)” value ([1]; 5% Serum) of the same compound?
Answer: >2.02

Question: And the “TI (TC50/IC50)” value ([1]; 10% Serum)?
Answer: >1.09

Question: What about the CC50 (MAGI cells) of the same compound?
Answer: > 100 µM

Question: What about the CC50 (in vitro) of the same compound?
Answer: > 100 µM

Question: What about the IC50 ([2]; 2% Serum) of the same compound?
Answer: 14.6 µM

Question: What about the IC90 ([2]; 2% Serum) of the same compound?
Answer: 71.2 µM

Question: What about the IC50 ([2]; 5% Serum) of the same compound?
Answer: 49.6 µM

Question: What about the IC90 ([2]; 5% Serum) of the same compound?
Answer: 93.6 µM

Question: And the IC50 ([2]; 10% Serum)?
Answer: 92.1 µM

Question: And the IC90 ([2]; 10% Serum)?
Answer: > 100 µM

Question: And the CC50 at 24 h [3]?
Answer: > 100 µM

Question: Which Ki [4] does the source give for `O=C(O)c1cccc(Cc2ccc3ccn(-c4cccc(C(=O)O)c4)c3c2)c1` [Compound I-6, 3-(6-(3-carboxybenzyl)-1H-indol-1-yl)benzoic acid] here?
Answer: 45 ± 5 µM

Question: What about the CC50 (TZM-bl cells) of the same compound?
Answer: > 400 µM

Question: Which results are given for `COc1cccc(-n2ccc3ccc(Cc4cccc(C(=O)O)c4)cc32)c1` [Compound I-7, 3-((1-(3-methoxyphenyl)-1H-indol-6-yl)methyl)benzoic acid]?
Answer: IC50 (HIV-1 IIIB): 61.5 µM; IC50 (HIV-1 Ba-L): 67.7 µM; TI (TC50/IC50) ([1]; 2% Serum): >6.33; TI (TC50/IC50) ([1]; 5% Serum): >2.94; TI (TC50/IC50) ([1]; 10% Serum): >1.48; CC50 (MAGI cells): > 100 µM; CC50 (in vitro): > 100 µM; IC50 ([2]; 2% Serum): 15.8 µM; IC90 ([2]; 2% Serum): > 100 µM; IC50 ([2]; 5% Serum): 34 µM; IC90 ([2]; 5% Serum): > 100 µM; IC50 ([2]; 10% Serum): 67.7 µM; IC90 ([2]; 10% Serum): > 100 µM; CC50 at 24 h [3]: > 100 µM

Question: With `O=Cc1c[nH]c2cc(Cc3cccc(C(=O)O)c3)ccc12` [Compound I-8, 3-((3-formyl-1H-indol-6-yl)methyl)benzoic acid] as the compound, how does the CC50 at 24 h [3] read?
Answer: > 100 µM

Question: Which CC50 at 24 h [3] does the source give for `O=C(O)c1cccc(Cc2ccc3[nH]ccc3c2)c1` [Compound I-9, 3-((1H-indol-5-yl)methyl)benzoic acid] here?
Answer: > 400 µM

Question: For `O=C(O)c1cccc(Cc2ccc3c(ccn3Cc3cccc(C(=O)O)c3)c2)c1` [Compound I-10, 3-((1-(3-carboxybenzyl)-1H-indol-5-yl)methyl)benzoic acid], which CC50 (TZM-bl cells) is on record?
Answer: > 400 µM

Question: What does the source list for `COc1cccc(-c2ccc3ccn(Cc4cccc(C(=O)O)c4)c3c2)c1` [Compound I-11, 3-((6-(3-methoxyphenyl)-1H-indol-1-yl)methyl)benzoic acid]?
Answer: IC50 (HIV-1 IIIB): 57.4 µM; IC50 (HIV-1 Ba-L): 47.4 µM; TI (TC50/IC50) ([1]; 2% Serum): 3.75; TI (TC50/IC50) ([1]; 5% Serum): >2.73; TI (TC50/IC50) ([1]; 10% Serum): >2.11; CC50 (in vitro): > 100 µM; IC50 ([2]; 2% Serum): 18 µM; IC90 ([2]; 2% Serum): > 100 µM; IC50 ([2]; 5% Serum): 36.6 µM; IC90 ([2]; 5% Serum): > 100 µM; IC50 ([2]; 10% Serum): 47.4 µM; IC90 ([2]; 10% Serum): > 100 µM; CC50 at 24 h [3]: > 100 µM

Question: For `O=C(O)c1cccc(-c2ccc3cc[nH]c3c2)c1` [Compound I-12, 3-(1H-indol-6-yl)benzoic acid], which CC50 at 24 h [3] is on record?
Answer: > 100 µM

Question: Which CC50 (TZM-bl cells) does the source give for `O=C(O)c1cccc(Cn2ccc3cc(-c4cccc(C(=O)O)c4)ccc32)c1` [Compound I-13, 3-(1-(3-carboxybenzyl)-1H-indol-5-yl)benzoic acid] here?
Answer: > 400 µM

Question: With `O=C(O)c1cccc(Cn2ccc3ccc(-c4cccc(O)c4)cc32)c1` [Compound I-14, 3-((6-(3-hydroxyphenyl)-1H-indol-1-yl)methyl)benzoic acid] as the compound, how does the CC50 at 24 h [3] read?
Answer: > 100 µM

Question: For `O=[N+]([O-])c1cccc(Cc2ccc3cc[nH]c3c2)c1` [Compound I-15, 6-(3-nitrobenzyl)-1H-indole], which CC50 at 24 h [3] is on record?
Answer: ~63 µM

Question: With `O=C(O)c1ccc([N+](=O)[O-])c(Cc2ccc3cc[nH]c3c2)c1` [Compound I-16, 3-((1H-indol-6-yl)methyl)-4-nitrobenzoic acid] as the compound, how does the CC50 at 24 h [3] read?
Answer: > 100 µM

Question: Which CC50 at 24 h [3] does the source give for `COc1ccc(C(=O)O)cc1Cc1ccc2cc[nH]c2c1` [Compound I-17, 3-((1H-indol-6-yl)methyl)-4-methoxybenzoic acid] here?
Answer: > 100 µM

Question: With `O=C(O)c1cc(O)cc(Cc2ccc3cc[nH]c3c2)c1` [Compound I-18, 3-((1H-indol-6-yl)methyl)-5-hydroxybenzoic acid] as the compound, how does the CC50 at 24 h [3] read?
Answer: > 100 µM

Question: For `O=C(O)c1ccc(O)c(Cc2ccc3cc[nH]c3c2)c1` [Compound I-19, 3-((1H-indol-6-yl)methyl)-4-hydroxybenzoic acid], which CC50 at 24 h [3] is on record?
Answer: > 100 µM

Question: Which CC50 at 24 h [3] does the source give for `COc1cc(Cc2ccc3cc[nH]c3c2)cc(C(=O)O)c1` [Compound I-20, 3-((1H-indol-6-yl)methyl)-5-methoxybenzoic acid] here?
Answer: > 100 µM

Question: For `O=C(O)c1cccc(COc2cccc(-c3ccc4ccn(Cc5cccc(C(=O)O)c5)c4c3)c2)c1` [Compound I-21, 3-((3-(1-(3-carboxybenzyl)-1H-indol-6-yl)phenoxy)methyl)benzoic acid], which CC50 at 24 h [3] is on record?
Answer: > 100 µM

Question: What does the source list for `COc1ccc(COc2cccc(-c3ccc4ccn(Cc5cccc(C(=O)OCc6cccc(C(=O)O)c6)c5)c4c3)c2)cc1` [Compound I-22, 3-((3-((6-(3-(4-methoxybenzyloxy)phenyl)-1H-indol-1-yl)methyl)benzoyloxy)methyl)benzoic acid]?
Answer: TI (TC50/IC50) ([1]; 2% Serum): 4.27; TI (TC50/IC50) ([1]; 5% Serum): >5.35; TI (TC50/IC50) ([1]; 10% Serum): >4.42; CC50 (in vitro): > 100 µM; IC50 ([2]; 2% Serum): 13.8 µM; IC90 ([2]; 2% Serum): 31.1 µM; IC50 ([2]; 5% Serum): 18.7 µM; IC90 ([2]; 5% Serum): 76.4 µM; IC50 ([2]; 10% Serum): 22.6 µM; IC90 ([2]; 10% Serum): 91.7 µM; CC50 at 24 h [3]: > 100 µM

Question: For `O=C(O)c1cccc(Cn2ccc3ccc(-c4ccc5cc(Cl)ccc5n4)cc32)c1` [II-1, 3-((6-(6-chloroquinolin-2-yl)-1H-indol-1-yl)methyl)benzoic acid], which CC50 at 24 h [3] is on record?
Answer: 93 µM

Question: Which CC50 at 24 h [3] does the source give for `O=C(O)c1cccc(Cn2ccc3cc(-c4ccc5cc(Cl)ccc5n4)ccc32)c1` [II-2, 3-((5-(6-chloroquinolin-2-yl)-1H-indol-1-yl)methyl)benzoic acid] here?
Answer: 156 µM

Question: With `COc1ccc(Cn2ccc3ccc(-c4ccc5ccn(Cc6cccc(C(=O)O)c6)c5c4)cc32)cc1` [II-3, 3-((1′-(4-methoxybenzyl)-1H,1′H-6,6′-biindol-1-yl)methyl)benzoic acid] as the compound, how does the CC50 at 24 h [3] read?
Answer: 18.9 ± 2.9 µM
